Assays:
[1] = 101.33 kPa, Liquid; for speed of sound: Sing-around technique in a fixed-path interferometer; for mass density: Vibrating tube method
[2] = xn = mol fraction of the nth substance listed; conditions: 81.5 kPa, Liquid, x2 = 0; for speed of sound: Sing-around technique in a fixed-path interferometer; for mass density: Vibrating tube method

CCn1cc[n+](C)c1.F[B-](F)(F)F [1-ethyl-3-methylimidazolium tetrafluoroborate]
[1]
Conditions	mass density [kg/m3]	speed of sound [m/s]
293.15 K	1285.95	1640.4
298.15 K	1282.14	1628.4
303.15 K	1278.34	1616
308.15 K	1274.55	1604.9
313.15 K	1270.78	1593.4
318.15 K	1267.03	1582
323.15 K	1263.3	1570.6
328.15 K	1259.58	1559.4
333.15 K	1255.88	1548.2
338.15 K	1252.2	1537.2
343.15 K	1248.54	1526.2

CC(=O)N(C)C [N,N-dimethylethanamide]
[1]
Conditions	mass density [kg/m3]	speed of sound [m/s]
293.15 K	941.341	1477.6
298.15 K	936.729	1457.4
303.15 K	932.112	1437.4
308.15 K	927.492	1417.5
313.15 K	922.863	1397.8
318.15 K	918.23	1378.2
323.15 K	913.586	1358.6
328.15 K	908.932	1339.2
333.15 K	904.268	1319.9
338.15 K	899.595	1300.8
343.15 K	894.909	1281.7

CC(=O)N(C)C [N,N-dimethylethanamide] + CCn1cc[n+](C)c1.F[B-](F)(F)F
[2]
Conditions	mass density [kg/m3]	speed of sound [m/s]
293.15 K	941.341	1477.6
298.15 K	936.729	1457.4
303.15 K	932.112	1437.4
308.15 K	927.492	1417.5
313.15 K	922.863	1397.8
318.15 K	918.23	1378.2
323.15 K	913.586	1358.6
328.15 K	908.932	1339.2
333.15 K	904.268	1319.9
338.15 K	899.595	1300.8
343.15 K	894.909	1281.7

CN(C)C=O [dimethylformamide]
[1]
Conditions	mass density [kg/m3]	speed of sound [m/s]
293.15 K	948.743	1477.1
298.15 K	943.978	1457.6
303.15 K	939.201	1438
308.15 K	934.417	1418.7
313.15 K	929.62	1399.3
318.15 K	924.812	1380
323.15 K	919.993	1360.9
328.15 K	915.159	1341.7
333.15 K	910.312	1322.7
338.15 K	905.445	1303.7
343.15 K	900.565	1284.8

CN(C)C=O [dimethylformamide] + CCn1cc[n+](C)c1.F[B-](F)(F)F
[2]
Conditions	mass density [kg/m3]	speed of sound [m/s]
293.15 K	948.743	1477.1
298.15 K	943.978	1457.6
303.15 K	939.201	1438
308.15 K	934.417	1418.7
313.15 K	929.62	1399.3
318.15 K	924.812	1380
323.15 K	919.993	1360.9
328.15 K	915.159	1341.7
333.15 K	910.312	1322.7
338.15 K	905.445	1303.7
343.15 K	900.565	1284.8
